# Activity calls are given as the source filed them. The rule behind the calls is not given here.
# How the values were obtained:
# [1] = test system: KARPAS-422; test: Antitumor activity against human KARPAS-422 cells xenografted in CB17/Icr-Prkdcscid/CrlCrlj mouse assessed as inhibition of tumor growth at 50 mg/kg, po BID for 14 days and measured after cessation of drug treatment; type: functional, organism-based; conditions: time 14.0 day
# [2] = Toxicity in Crl:CD Sprague-Dawley rat assessed as potassium level in blood at 100 mg/kg, po administered daily for 14 days (reference value: 4.18+/-0.189 mEq/L); type: organism-based; conditions: in vivo, 336 h, time 14 day
# [3] = Toxicity in Crl:CD Sprague-Dawley rat assessed as albumin level in blood at 100 mg/kg, po administered daily for 14 days (reference value: 3.85+/-0.129 g/dL); type: organism-based; conditions: in vivo, 336 h, time 14 day
# [4] = Toxicity in Crl:CD Sprague-Dawley rat assessed as decrease in food consumption at 100 mg/kg, po administered daily for 14 days; type: organism-based; conditions: in vivo, 336 h, time 14 day
# [5] = Toxicity in Crl:CD Sprague-Dawley rat assessed as atrophy of hepatocytes in liver at 100 mg/kg, po administered daily for 14 days by hematoxylin and eosin staining based analysis; type: organism-based; conditions: in vivo, 336 h, time 14 day
# [6] = Toxicity in Crl:CD Sprague-Dawley rat assessed as eosinophil count in blood at 100 mg/kg, po administered daily for 14 days (reference value: 0.085+/-0.04 10^3/uL); type: organism-based; conditions: in vivo, 336 h, time 14 day
# [7] = Toxicity in Crl:CD Sprague-Dawley rat assessed as vacuolation of histiocytes in thymus cortex at 100 mg/kg, po administered daily for 14 days by hematoxylin and eosin staining based analysis; type: organism-based; conditions: in vivo, 336 h, time 14 day
# [8] = Toxicity in Crl:CD Sprague-Dawley rat assessed as white blood cell count in blood at 100 mg/kg, po administered daily for 14 days (reference value: 9.55+/-1.72 10^3/uL); type: organism-based; conditions: in vivo, 336 h, time 14 day
# [9] = Toxicity in Crl:CD Sprague-Dawley rat assessed as creatinine level in blood at 100 mg/kg, po administered daily for 14 days (reference value: 0.223 +/-[…]); type: organism-based; conditions: in vivo, 336 h, time 14 day
# [10] = Toxicity in Crl:CD Sprague-Dawley rat assessed as decrease of lymphocytes in thymus cortex at 100 mg/kg, po administered daily for 14 days by hematoxylin and eosin staining based analysis; type: organism-based; conditions: in vivo, 336 h, time 14 day
# [11] = Mean AUC (0-24 hrs) in Crl:CD Sprague-Dawley rat at 100 mg/kg, po by LC/MS/MS analysis; type: ADME, organism-based; conditions: in vivo
# [12] = Toxicity in Crl:CD Sprague-Dawley rat assessed as platelet count in blood at 100 mg/kg, po administered daily for 14 days (reference value: 1160+/-65.1 10^3/uL); type: organism-based; conditions: in vivo, 336 h, time 14 day
# [13] = test system: JM1; test: Antitumor activity against human JM1 cells assessed as cell growth inhibition treated for 10 to 15 days; type: functional; conditions: time 10-15 day
# [14] = test system: G-401; test: Antitumor activity against human G-401 cells assessed as cell growth inhibition treated for 10 to 15 days; type: functional; conditions: time 10-15 day
# [15] = target: Ephrin type-A receptor 2 (Homo sapiens) (UniProt P29317); test: Inhibition of N-terminal GST-fused human EPHA2 cytoplasmic domain (572 to 976 residues) expressed in baculovirus-infected Sf21 cells using Blk/Lyntide as substrate at 1 uM in presence of ATP by Mobility shift assay
# [16] = Antitumor activity against human EB1 cells assessed as cell growth inhibition treated for 10 to 15 days; type: functional; conditions: time 10-15 day
# [17] = Antitumor activity against human HuT 102 cells assessed as cell growth inhibition treated for 10 to 15 days; type: functional; conditions: time 10-15 day
# [18] = Antitumor activity against human NCI-H1781 cells assessed as cell growth inhibition treated for 10 to 15 days; type: functional; conditions: time 10-15 day
# [19] = test system: P3HR-1; test: Antitumor activity against human P3HR-1 cells assessed as cell growth inhibition treated for 10 to 15 days; type: functional; conditions: time 10-15 day
# [20] = test system: MX1; test: Antitumor activity against human MX1 cells assessed as cell growth inhibition treated for 10 to 15 days; type: functional; conditions: time 10-15 day
# [21] = Antitumor activity against human COV434 cells assessed as cell growth inhibition treated for 10 to 15 days; type: functional; conditions: time 10-15 day
# [22] = test system: NALM-6; test: Antitumor activity against human NALM-6 cells assessed as cell growth inhibition treated for 10 to 15 days; type: functional; conditions: time 10-15 day
# [23] = test system: SU-DHL-6; test: Antitumor activity against human SU-DHL-6 cells assessed as cell growth inhibition treated for 10 to 15 days; type: functional; conditions: time 10-15 day
# [24] = test system: HH; test: Antitumor activity against human HH cells assessed as cell growth inhibition treated for 10 to 15 days; type: functional; conditions: time 10-15 day
# [25] = target: Histone-lysine N-methyltransferase NSD2 (Homo sapiens, UniProt O96028); test: Inhibition of human NSD2 using Nucleosomes and [3H]SAM as substrate incubated for 30 mins to 1 hr by HotSpot kinase assay
# [26] = test system: MC116; test: Antitumor activity against human MC116 cells assessed as cell growth inhibition treated for 10 to 15 days; type: functional; conditions: time 10-15 day
# [27] = target: Histone-lysine N-methyltransferase 2D (Homo sapiens, UniProt O14686); test: Inhibition of human MLL2 using Core Histone and [3H]SAM as substrate incubated for 30 mins to 1 hr by HotSpot kinase assay
# [28] = test system: THP-1; test: Antitumor activity against human THP-1 cells assessed as cell growth inhibition treated for 10 to 15 days; type: functional; conditions: time 10-15 day
# [29] = test system: Daudi; test: Antitumor activity against human Daudi cells assessed as cell growth inhibition treated for 10 to 15 days; type: functional; conditions: time 10-15 day
# [30] = test system: SK-BR-3; test: Antitumor activity against human SK-BR-3 cells assessed as cell growth inhibition treated for 10 to 15 days; type: functional; conditions: time 10-15 day
# [31] = target: PRMT5/MEP50 complex (Homo sapiens, UniProt O14744+Q9BQA1); test: Inhibition of human PRMT5/MEP50 using Histone H2A and [3H]SAM as substrate incubated for 30 mins to 1 hr by HotSpot kinase assay; type: protein-complex assay
# [32] = test system: SUP-B15; test: Antitumor activity against human SUP-B15 cells assessed as cell growth inhibition treated for 10 to 15 days; type: functional; conditions: time 10-15 day
# [33] = target: MAP kinase-activated protein kinase 3 (Homo sapiens) (UniProt Q16644); test: Inhibition of N-terminal GST-fused full length human MAPKAPK3 (1 to 382 residues) expressed in baculovirus expression system using GS peptide as substrate at 1 uM in presence of ATP by Mobility shift assay
# [34] = test system: KARPAS-422; test: Antitumor activity against human KARPAS-422 cells assessed as cell growth inhibition treated for 10 to 15 days; type: functional; conditions: time 10-15 day
# [35] = test system: SNU-423; test: Antitumor activity against human SNU-423 cells assessed as cell growth inhibition treated for 10 to 15 days; type: functional; conditions: time 10-15 day
# [36] = test system: HCC1569; test: Antitumor activity against human HCC1569 cells assessed as cell growth inhibition treated for 10 to 15 days; type: functional; conditions: time 10-15 day
# [37] = test system: ATN-1; test: Antitumor activity against human ATN-1 cells assessed as cell growth inhibition treated for 10 to 15 days; type: functional; conditions: time 10-15 day
# [38] = test system: HCT-116; test: Antitumor activity against human HCT-116 cells assessed as cell growth inhibition treated for 10 to 15 days; type: functional; conditions: time 10-15 day
# [39] = Antitumor activity against human HUG1N cells assessed as cell growth inhibition treated for 10 to 15 days; type: functional; conditions: time 10-15 day
# [40] = test system: NCI-H661; test: Antitumor activity against human NCI-H661 cells assessed as cell growth inhibition treated for 10 to 15 days; type: functional; conditions: time 10-15 day
# Chain of MAP kinase-activated protein kinase 3 (Homo sapiens) (Q16644 whole entry, looked up, the tested form may be a part): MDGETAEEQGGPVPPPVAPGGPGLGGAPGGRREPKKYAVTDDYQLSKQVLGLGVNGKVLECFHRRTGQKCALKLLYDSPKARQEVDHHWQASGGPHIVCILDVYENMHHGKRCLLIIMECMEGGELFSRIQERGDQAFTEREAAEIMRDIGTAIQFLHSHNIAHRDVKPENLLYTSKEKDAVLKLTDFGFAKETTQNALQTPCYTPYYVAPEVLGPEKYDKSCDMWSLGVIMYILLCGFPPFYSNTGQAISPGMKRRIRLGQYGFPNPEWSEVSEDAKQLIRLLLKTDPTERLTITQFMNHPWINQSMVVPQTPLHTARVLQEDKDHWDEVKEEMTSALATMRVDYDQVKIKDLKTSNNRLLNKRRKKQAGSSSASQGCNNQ
# Chain of PRMT5/MEP50 complex (O14744 whole entry): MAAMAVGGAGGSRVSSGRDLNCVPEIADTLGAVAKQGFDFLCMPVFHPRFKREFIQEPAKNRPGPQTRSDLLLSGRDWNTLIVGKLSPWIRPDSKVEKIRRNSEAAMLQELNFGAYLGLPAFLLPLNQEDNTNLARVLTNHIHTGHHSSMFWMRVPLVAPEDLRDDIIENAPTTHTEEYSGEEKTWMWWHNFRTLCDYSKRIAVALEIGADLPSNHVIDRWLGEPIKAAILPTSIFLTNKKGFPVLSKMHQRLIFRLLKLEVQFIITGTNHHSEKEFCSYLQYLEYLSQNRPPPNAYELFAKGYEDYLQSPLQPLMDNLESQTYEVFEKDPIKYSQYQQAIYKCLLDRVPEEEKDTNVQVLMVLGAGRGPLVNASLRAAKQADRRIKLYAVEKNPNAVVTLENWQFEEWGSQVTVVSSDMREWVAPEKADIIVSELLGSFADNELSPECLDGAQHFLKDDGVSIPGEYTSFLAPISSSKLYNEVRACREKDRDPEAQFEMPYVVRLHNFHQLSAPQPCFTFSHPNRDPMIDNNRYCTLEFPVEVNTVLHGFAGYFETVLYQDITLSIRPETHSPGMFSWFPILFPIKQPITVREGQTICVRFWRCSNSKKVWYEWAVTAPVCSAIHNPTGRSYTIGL
# Chain of PRMT5/MEP50 complex (Q9BQA1 whole entry): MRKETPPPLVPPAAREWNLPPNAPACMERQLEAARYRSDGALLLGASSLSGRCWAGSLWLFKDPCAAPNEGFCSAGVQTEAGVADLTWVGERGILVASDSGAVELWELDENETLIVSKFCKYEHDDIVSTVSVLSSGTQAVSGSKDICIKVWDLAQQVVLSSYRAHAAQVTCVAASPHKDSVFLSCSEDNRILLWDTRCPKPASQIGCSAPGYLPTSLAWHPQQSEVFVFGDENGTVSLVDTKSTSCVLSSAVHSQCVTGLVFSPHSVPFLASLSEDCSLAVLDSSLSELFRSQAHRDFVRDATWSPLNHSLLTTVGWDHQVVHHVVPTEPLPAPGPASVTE
# Chain of Ephrin type-A receptor 2 (Homo sapiens) (P29317 whole entry, the tested form may be a part): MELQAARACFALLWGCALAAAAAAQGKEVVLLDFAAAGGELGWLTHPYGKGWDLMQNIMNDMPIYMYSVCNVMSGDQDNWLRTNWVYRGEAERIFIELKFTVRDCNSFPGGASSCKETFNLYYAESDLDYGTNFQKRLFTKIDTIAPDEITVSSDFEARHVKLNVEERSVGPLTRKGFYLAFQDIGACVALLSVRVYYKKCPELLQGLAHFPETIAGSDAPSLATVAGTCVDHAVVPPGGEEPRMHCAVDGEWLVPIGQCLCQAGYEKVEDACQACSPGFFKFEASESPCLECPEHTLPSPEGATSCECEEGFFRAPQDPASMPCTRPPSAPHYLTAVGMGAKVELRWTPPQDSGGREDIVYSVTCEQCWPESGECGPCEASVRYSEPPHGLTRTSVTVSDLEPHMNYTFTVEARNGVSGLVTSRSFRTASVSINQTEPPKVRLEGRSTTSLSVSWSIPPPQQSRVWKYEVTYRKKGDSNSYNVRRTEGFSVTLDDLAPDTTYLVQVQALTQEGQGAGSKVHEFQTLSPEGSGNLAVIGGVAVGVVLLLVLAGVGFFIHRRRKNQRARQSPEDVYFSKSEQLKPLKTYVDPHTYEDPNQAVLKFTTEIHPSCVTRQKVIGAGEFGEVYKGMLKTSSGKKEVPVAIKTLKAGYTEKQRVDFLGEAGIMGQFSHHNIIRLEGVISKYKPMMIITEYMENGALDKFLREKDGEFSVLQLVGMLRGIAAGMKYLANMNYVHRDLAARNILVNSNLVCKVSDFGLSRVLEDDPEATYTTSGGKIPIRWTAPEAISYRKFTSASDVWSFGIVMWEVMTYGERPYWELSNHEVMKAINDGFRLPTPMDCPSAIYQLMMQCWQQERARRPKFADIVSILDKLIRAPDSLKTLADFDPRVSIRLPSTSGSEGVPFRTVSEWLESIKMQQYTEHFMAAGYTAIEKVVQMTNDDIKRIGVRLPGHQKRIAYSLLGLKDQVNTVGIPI
# Chain of Histone-lysine N-methyltransferase NSD2 (O96028 whole entry): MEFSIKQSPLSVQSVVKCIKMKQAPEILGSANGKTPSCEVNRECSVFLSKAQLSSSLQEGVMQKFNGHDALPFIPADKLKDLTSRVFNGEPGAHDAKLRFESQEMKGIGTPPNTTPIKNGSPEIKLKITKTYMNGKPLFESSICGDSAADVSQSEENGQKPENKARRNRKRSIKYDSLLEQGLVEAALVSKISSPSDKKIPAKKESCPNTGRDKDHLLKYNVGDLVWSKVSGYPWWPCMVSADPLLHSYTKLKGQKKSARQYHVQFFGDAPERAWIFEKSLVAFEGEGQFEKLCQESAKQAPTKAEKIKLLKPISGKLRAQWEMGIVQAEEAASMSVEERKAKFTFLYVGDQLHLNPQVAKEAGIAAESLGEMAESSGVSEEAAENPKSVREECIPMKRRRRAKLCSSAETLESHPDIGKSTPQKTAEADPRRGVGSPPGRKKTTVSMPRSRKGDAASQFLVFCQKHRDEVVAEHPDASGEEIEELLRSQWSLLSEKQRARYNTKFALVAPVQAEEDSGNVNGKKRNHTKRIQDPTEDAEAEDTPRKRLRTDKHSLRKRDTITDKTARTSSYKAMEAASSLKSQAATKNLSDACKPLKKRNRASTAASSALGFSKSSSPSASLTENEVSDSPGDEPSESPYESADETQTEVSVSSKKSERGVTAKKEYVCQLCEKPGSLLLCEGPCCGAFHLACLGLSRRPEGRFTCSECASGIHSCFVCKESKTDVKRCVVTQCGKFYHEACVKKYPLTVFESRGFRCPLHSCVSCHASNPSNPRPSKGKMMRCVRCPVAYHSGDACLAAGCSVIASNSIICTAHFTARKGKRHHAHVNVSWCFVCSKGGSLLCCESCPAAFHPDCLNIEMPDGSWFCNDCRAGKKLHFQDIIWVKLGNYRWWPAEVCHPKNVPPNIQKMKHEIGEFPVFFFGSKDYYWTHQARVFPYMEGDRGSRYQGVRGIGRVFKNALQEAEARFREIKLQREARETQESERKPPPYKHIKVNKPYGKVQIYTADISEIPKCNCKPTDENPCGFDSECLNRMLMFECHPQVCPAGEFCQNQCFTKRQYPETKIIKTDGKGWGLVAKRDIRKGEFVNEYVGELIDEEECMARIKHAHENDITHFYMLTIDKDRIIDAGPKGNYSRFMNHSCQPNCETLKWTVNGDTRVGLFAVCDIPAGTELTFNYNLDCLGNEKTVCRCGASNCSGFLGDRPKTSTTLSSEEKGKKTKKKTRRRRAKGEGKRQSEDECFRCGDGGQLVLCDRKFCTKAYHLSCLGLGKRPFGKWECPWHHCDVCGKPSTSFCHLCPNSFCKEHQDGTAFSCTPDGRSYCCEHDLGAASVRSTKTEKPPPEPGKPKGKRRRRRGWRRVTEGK
smiles,measurement,setting,value
Cc1cc(C)c(CNC(=O)c2cc(Br)c3c(c2C)O[C@@](C)([C@H]2CC[C@H](N(C)C)CC2)O3)c(=O)[nH]1,Activity,[1],Active
same,Activity,[2],4.2 mEq/L
same,Activity,[3],3.75 g/dL
same,Activity,[4],Toxic
same,Activity,[5],Toxic
same,Activity,[6],0.168 10^3 /uL
same,Activity,[7],Toxic
same,Activity,[8],4.56 10^3 /uL
same,Activity,[9],0.238 mg/dL
same,Activity,[10],Toxic
same,AUC,[11],25.2 µM·h
same,Activity,[12],1120 10^3 /uL
Cc1cc(C)c(CNC(=O)c2cc(Cl)c3c(c2C)O[C@@](C)([C@H]2CC[C@H](N(C)C)CC2)O3)c(=O)[nH]1 [VALEMETOSTAT],GI50,[13],> 1000 nM
same,GI50,[14],17.7 nM
same,inhibition,[15],-6.7%
same,GI50,[16],48.2 nM
same,GI50,[17],0.987 nM
same,GI50,[18],> 1000 nM
same,GI50,[19],14.3 nM
same,GI50,[20],> 1000 nM
same,GI50,[21],1.5 nM
same,GI50,[22],> 1000 nM
same,GI50,[23],0.68 nM
same,GI50,[24],7.18 nM
same,IC50,[25],100000 nM
same,GI50,[26],50.4 nM
same,IC50,[27],> 100000 nM
same,GI50,[28],68.1 nM
same,GI50,[29],> 1000 nM
same,GI50,[30],6.38 nM
same,IC50,[31],100000 nM
same,GI50,[32],24.3 nM
same,inhibition,[33],-9.3%
same,GI50,[34],1.56 nM
same,GI50,[35],> 1000 nM
same,GI50,[36],> 1000 nM
same,GI50,[37],43.8 nM
same,GI50,[38],> 1000 nM
same,GI50,[39],142 nM
same,GI50,[40],359 nM
